One test concerns the target T1, BCL-w (Homo sapiens, UniProt Q92843).
T1 sequence (Q92843 1-193): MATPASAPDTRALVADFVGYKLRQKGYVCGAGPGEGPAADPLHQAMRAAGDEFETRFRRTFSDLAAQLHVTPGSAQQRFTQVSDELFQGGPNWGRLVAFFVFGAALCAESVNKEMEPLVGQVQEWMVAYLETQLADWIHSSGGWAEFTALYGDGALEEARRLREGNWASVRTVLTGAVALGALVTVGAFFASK
Put plainly: BCL-binding assay (AlphaLISA competition, BIM peptide). The following applies: 6xHis BCL-w with biotinylated BIM peptide, 24 hr incubation. As to the method: (§1) Compounds were prepared as 400× DMSO stock solutions in a 1:4 dilution series then diluted […] in assay buffer (25 mM HEPES pH 7.5, 100 mM NaCl, 0.1% BSA, 0.005% Tween) immediately before use. Aliquots of 400 nM 6xHis-tagged BCL-xL, BCL-2, and BCL-w were thawed on ice and diluted to 0.4 (BCL-XL) or 0.8 (BCL-W and 2) nM in assay buffer. Aliquots of biotinylated BIM and BAD peptides were diluted in assay buffer to 120 and 60 nM respectively. Ten microliters of biotinylated peptide were added to wells of a 96-well PCR plate, followed by ten microliters of inhibitor, then ten microliters of BCL protein, BCL-XL with BAD and BCL-W/2 with BIM. The plates were sealed and incubated at room temperature. After 24 hr, 0.16 μg Anti-His conjugated AlphaLISA acceptor beads were added in 5 μL assay buffer. After one hour at room temperature, 0.16 μg AlphaScreen streptavidin donor beads were added in 5 μL assay buffer and plates were incubated an additional 30 min in the dark. Two 17 μL aliquots of each reaction were plated in a Perkin Elmer 384-well proxiplate, and plates were scanned for using a Perkin Elmer Enspire plate reader. Kd values were calculated in Prism Graph Pad using a one site competitive binding model and previously determined Kd values for each protein peptide pair. […]
On the technique in general: In Alpha technology, singlet oxygen from a donor bead excites a nearby acceptor bead.

For the next test, the target named is BCL-2 (Homo sapiens, UniProt P10415). Described as above. The following applies: 6xHis BCL-2 with biotinylated BIM peptide, 24 hr incubation. On the procedure: as §1
Sequence of BCL-2 (P10415 whole entry, species assumed): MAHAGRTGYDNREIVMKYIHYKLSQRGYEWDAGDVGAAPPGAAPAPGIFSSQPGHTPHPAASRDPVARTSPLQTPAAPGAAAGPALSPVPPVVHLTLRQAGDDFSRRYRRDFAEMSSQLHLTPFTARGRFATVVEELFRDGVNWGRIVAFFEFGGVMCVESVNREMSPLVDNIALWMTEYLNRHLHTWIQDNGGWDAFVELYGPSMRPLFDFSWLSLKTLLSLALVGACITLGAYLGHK
Test [1] relates to IMR-90 SnC (irradiated senescent IMR90 cells). Kind of test: Senolysis assay (CellTiter-Glo viability). The following applies: for EC50: Homo sapiens, IMR-90, light or radiation study, 72 h, X-ray irradiated senescent IMR90 cells, viability three days after compound addition; for SI (ratio of EC50 of non-senescent cells to EC50 of senescent cells): IMR90 non-senescent vs senescent cells. Type of test: cell-based, human. As to the method:
IMR90 cells are maintained in DMEM supplemented with 10% FBS. To prepare a senescent population, cells were trypsinized, diluted to 50,000 per mL, and irradiated with 10-15 Gy of X-ray irradiation. Irradiated cells were plated at 5000 cells per well in one third of a 96-well plate and maintained for two weeks prior to the assay. Four days prior to the assay, non-senescent IMR90s were plated at 2500 per well in the second third of the plate. One day prior to the assay, 2500 non-senescent cells were plated in the final third of the plate. Compounds were prepared as a 200×DMSO dilution series then diluted to 1× in media immediately before adding to cells. Three days after compound addition, cell viability was measured using CellTiter-Glo reagent from Promega. Viability was calculated relative to a DMSO control and EC50 values are calculated in Prism GraphPad. […] The selectivity (SI) of the compounds described herein is a ratio of the EC50 of non-senescent cells to the EC50 of senescent cells. The SI of the compounds described herein is 10 or above for “A” selectivity, between 2 and 10 for “B” selectivity or 2 or less for “C” selectivity.

The target in another test is BCL-xL (Homo sapiens, UniProt Q07817). Put plainly: BCL-binding assay (AlphaLISA competition, BAD peptide). The following applies: 6xHis BCL-xL with biotinylated BAD peptide, 24 hr incubation. As to the method: as §1
Sequence of BCL-xL (Q07817 whole entry, species assumed): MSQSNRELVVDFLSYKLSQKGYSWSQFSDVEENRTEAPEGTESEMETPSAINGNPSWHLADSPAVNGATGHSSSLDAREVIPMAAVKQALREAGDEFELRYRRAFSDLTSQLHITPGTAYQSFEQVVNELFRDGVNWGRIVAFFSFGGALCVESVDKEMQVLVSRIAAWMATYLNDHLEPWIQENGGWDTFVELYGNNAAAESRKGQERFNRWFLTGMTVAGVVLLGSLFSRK

The source of these data is patent US11111259B2, “Acylsulfonamide derivatives for treating senescence-associated diseases and disorders” (Unity Biotechnology, Inc., priority 2015, dated 2021).

What is called Kd is a measure of binding affinity in units of concentration. Low values mean a tighter complex, high ones a looser complex. One may read the EC50 as the concentration that produces a half-maximal response.

For the compound `CC1(C)CCC(c2ccc(Cl)cc2)=C(CN2CCN(c3ccc(C(=O)NS(=O)(=O)c4ccc(N[C@H](CCN5CCN(CCP(=O)(OCOC(=O)C(C)(C)C)OCOC(=O)C(C)(C)C)CC5)CSc5ccccc5)c(S(=O)(=O)C(F)(F)F)c4)cc3)CC2)C1` [Compound 43, (R)-(((2-(4-(3-((4-(N-(4-(4-((4′-chloro-4,4-dimethyl-3,4,5,6-tetrahydro-[1,1′-biphenyl]-2-yl)methyl)piperazin-1-yl)benzoyl)sulfamoyl)-2-((trifluoromethyl)sulfonyl)phenyl)amino)-4-(phenylthio)butyl)piperazin-1-yl)ethyl)phosphoryl)bis(oxy))bis(methylene) bis(2,2-dimethylpropanoate)], the Kd on BCL-w was 10 to 50 nM; at BCL-2 it was below 1 nM; at BCL-xL, 1 to 10 nM. Moreover, the EC50 in test [1] was above 10000 nM.

Take `CCOP(=O)(CN1CCN(CC[C@H](C[S+]([O-])c2ccccc2)Nc2ccc(S(=O)(=O)NC(=O)c3ccc(N4CCN(CC5=C(c6ccc(Cl)cc6)CCC(C)(C)C5)CC4)cc3)cc2S(=O)(=O)C(F)(F)F)CC1)OCC` (stereo partly drawn) [Compound 44, Diethyl ((4-((3R)-3-((4-(N-(4-(4-((4′-chloro-4,4-dimethyl-3,4,5,6-tetrahydro-[1,1′-biphenyl]-2-yl)methyl)piperazin-1-yl)benzoyl)sulfamoyl)-2-((trifluoromethyl)sulfonyl)phenyl)amino)-4-(phenylsulfinyl)butyl)piperazin-1-yl)methyl)phosphonate]: the equilibrium dissociation constant (Kd) at BCL-w is 10 to 50 nM; at BCL-2, below 1 nM; at BCL-xL it was below 1 nM. For the same compound, in test [1], the EC50 lay in the range of 1000 to 10000 nM. The “SI (ratio of EC50 of non-senescent cells to EC50 of senescent cells)” value in test [1] is “B (between 2 and 10)”.

Regarding `CC1(C)CCC(c2ccc(Cl)cc2)=C(CN2CCN(c3ccc(C(=O)NS(=O)(=O)c4ccc(N[C@H](CCN5CCN(CCP(=O)(O)OCOC(=O)C(C)(C)C)CC5)CSc5ccccc5)c(S(=O)(=O)C(F)(F)F)c4)cc3)CC2)C1` [Compound 45, (((2-(4-((R)-3-((4-(N-(4-(4-((4′-chloro-4,4-dimethyl-3,4,5,6-tetrahydro-[1,1′-biphenyl]-2-yl)methyl)piperazin-1-yl)benzoyl)sulfamoyl)-2-((trifluoromethyl)sulfonyl)phenyl)amino)-4-(phenylthio)butyl)piperazin-1-yl)ethyl)(hydroxy)phosphoryl)oxy)methyl pivalate], the dissociation constant (Kd) is 1 to 10 nM on BCL-w, below 1 nM at BCL-2 and below 1 nM on BCL-xL. For the same compound, the EC50 in test [1] is above 10000 nM.

On to `CC1(C)CCC(c2ccc(Cl)cc2)=C(CN2CCN(c3ccc(C(=O)NS(=O)(=O)c4ccc(N[C@H](CCN5CCC(CP(=O)(OCOC(=O)C(C)(C)C)OCOC(=O)C(C)(C)C)CC5)CSc5ccccc5)c(S(=O)(=O)C(F)(F)F)c4)cc3)CC2)C1` [Compound 46], for which the Kd at BCL-w was above 50 nM; at BCL-2, 1 to 10 nM; at BCL-xL, 1 to 10 nM. The half-maximal effective concentration (EC50) in test [1] is above 10000 nM.

For the compound `CC1(C)CCC(c2ccc(Cl)cc2)=C(CN2CCN(c3ccc(C(=O)NS(=O)(=O)c4ccc(N[C@H](CCN5CCC(CP(=O)(O)O)CC5)CSc5ccccc5)c(S(=O)(=O)C(F)(F)F)c4)cc3)CC2)C1` [Compound 47], the Kd is 1 to 10 nM at BCL-w, below 1 nM at BCL-2 and below 1 nM at BCL-xL. Also, the half-maximal effective concentration (EC50) in test [1] is above 10000 nM.

On to `CCOP(=O)(CC1CCN(CC[C@H](CSc2ccccc2)Nc2ccc(S(=O)(=O)NC(=O)c3ccc(N4CCN(CC5=C(c6ccc(Cl)cc6)CCC(C)(C)C5)CC4)cc3)cc2S(=O)(=O)C(F)(F)F)CC1)OCOC(=O)C(C)(C)C` (stereo partly drawn) [Compound 48, (((1-((R)-3-((4-(N-(4-(4-((4′-chloro-4,4-dimethyl-3,4,5,6-tetrahydro-[1,1′-biphenyl]-2-yl)methyl)piperazin-1-yl)benzoyl)sulfamoyl)-2-((trifluoromethyl)sulfonyl)phenyl)amino)-4-(phenylthio)butyl)piperidin-4-yl)methyl)(ethoxy)phosphoryl)oxy)methyl pivalate], for which the Kd on BCL-w was 1 to 10 nM; on BCL-2, below 1 nM; at BCL-xL it was below 1 nM. The compound also gave an EC50 in test [1] below 1000 nM. For the same compound, in test [1], the “SI (ratio of EC50 of non-senescent cells to EC50 of senescent cells)” value was “A (10 or above)”.

Regarding `CCOP(=O)(CN1CCN(CC[C@H](CSc2ccccc2)Nc2ccc(S(=O)(=O)NC(=O)c3ccc(N4CCN(Cc5ccccc5-c5ccc(Cl)cc5)CC4)cc3)cc2S(=O)(=O)C(F)(F)F)CC1)OCC` [Compound 51, Diethyl (R)-((4-(3-((4-(N-(4-(4-((4′-chloro-[1,1′-biphenyl]-2-yl)methyl)piperazin-1-yl)benzoyl)sulfamoyl)-2-((trifluoromethyl)sulfonyl)phenyl)amino)-4-(phenylthio)butyl)piperazin-1-yl)methyl)phosphonate], the figures for the Kd at BCL-w, on BCL-2 and at BCL-xL were 1 to 10 nM, below 1 nM and below 1 nM, respectively. Moreover, in test [1], the EC50 lay in the range of 1000 to 10000 nM. Also, the “SI (ratio of EC50 of non-senescent cells to EC50 of senescent cells)” value in test [1] is “B (between 2 and 10)”.

With `CCOP(=O)(O)CN1CCN(CC[C@H](CSc2ccccc2)Nc2ccc(S(=O)(=O)NC(=O)c3ccc(N4CCN(Cc5ccccc5-c5ccc(Cl)cc5)CC4)cc3)cc2S(=O)(=O)C(F)(F)F)CC1` [Compound 53, Ethyl hydrogen ((4-((R)-3-((4-(N-(4-(4-((4′-chloro-[1,1′-biphenyl]-2-yl)methyl)piperazin-1-yl)benzoyl)sulfamoyl)-2-((trifluoromethyl)sulfonyl)phenyl)amino)-4-(phenylthio)butyl)piperazin-1-yl)methyl)phosphonate], the Kd at BCL-w, on BCL-2 and on BCL-xL was below 1 nM in each case. In addition, in test [1], the EC50 was above 10000 nM.

In the case of `CCOP(=O)(CN1CCN(CC[C@H](CSc2ccccc2)Nc2ccc(S(=O)(=O)NC(=O)c3ccc(N4CCN(Cc5ccccc5-c5ccc(Cl)cc5)CC4)cc3)cc2S(=O)(=O)C(F)(F)F)CC1)OCOC(=O)C(C)(C)C` (stereo partly drawn) [Compound 54, (((4-((R)-3-((4-(N-(4-(4-((4′-chloro-[1,1′-biphenyl]-2-yl)methyl)piperazin-1-yl)benzoyl)sulfamoyl)-2-((trifluoromethyl)sulfonyl)phenyl)amino)-4-(phenylthio)butyl)piperazin-1-yl)methyl)(ethoxy)phosphoryl)oxy)methyl pivalate], the equilibrium dissociation constant (Kd) at BCL-w was 1 to 10 nM; on BCL-2, below 1 nM; on BCL-xL it was below 1 nM. For the same compound, the half-maximal effective concentration (EC50) in test [1] lay in the range of 1000 to 10000 nM. For the same compound, the “SI (ratio of EC50 of non-senescent cells to EC50 of senescent cells)” value in test [1] is “B (between 2 and 10)”.

On to `CCOP(=O)(CN1CCN(CC[C@H](CSc2ccccc2)Nc2ccc(S(=O)(=O)NC(=O)c3ccc(N4CCN(Cc5ccccc5-c5ccc(Cl)cc5)CC4)cc3)cc2S(=O)(=O)C(F)(F)F)CC1)OCOC(=O)OC(C)C` (stereo partly drawn) [Compound 56, (((4-((R)-3-((4-(N-(4-(4-((4′-chloro-[1,1′-biphenyl]-2-yl)methyl)piperazin-1-yl)benzoyl)sulfamoyl)-2-((trifluoromethyl)sulfonyl)phenyl)amino)-4-(phenylthio)butyl)piperazin-1-yl)methyl)(ethoxy)phosphoryl)oxy)methyl isopropyl carbonate], for which the values for the Kd on BCL-w, at BCL-2 and at BCL-xL were 1 to 10 nM, below 1 nM and below 1 nM, respectively. In test [1], this compound returned an EC50 above 10000 nM.
